Values of other authors in patent publication US10822301B2, “3-carbon substituted 4-aminocyclopent-1-ene-1-carboxylic acid compounds as inhibitors of gamma-aminobutyric acid (GABA) aminotransferase” (Northwestern University, priority 2018, dated 2020).

Tests used:
[1] = test system: cocaine addiction in humans; settings: 9-week double-blind trial
epilepsy patients = settings: long-term administration, share of epilepsy patients

Structure (SMILES): C=CC(N)CCC(=O)O (centres unmarked) [vigabatrin]
- patients achieving abstinence [1]: up to 28%
- permanent vision loss (damage of the retinal nerve fiber layer) (epilepsy patients): 25-40%
